Data published in paper PMC10246433 (Bioorganic & medicinal chemistry letters, 2023).
“Also recorded” adds a separate entry of the source.

Key:
[1] = molecular target: T1, hNek2 kinase (Homo sapiens, UniProt P51955); test: ADP-Glo kinase assay, recombinant hNek2; format: biochemical
T1 sequence (P51955 1-445): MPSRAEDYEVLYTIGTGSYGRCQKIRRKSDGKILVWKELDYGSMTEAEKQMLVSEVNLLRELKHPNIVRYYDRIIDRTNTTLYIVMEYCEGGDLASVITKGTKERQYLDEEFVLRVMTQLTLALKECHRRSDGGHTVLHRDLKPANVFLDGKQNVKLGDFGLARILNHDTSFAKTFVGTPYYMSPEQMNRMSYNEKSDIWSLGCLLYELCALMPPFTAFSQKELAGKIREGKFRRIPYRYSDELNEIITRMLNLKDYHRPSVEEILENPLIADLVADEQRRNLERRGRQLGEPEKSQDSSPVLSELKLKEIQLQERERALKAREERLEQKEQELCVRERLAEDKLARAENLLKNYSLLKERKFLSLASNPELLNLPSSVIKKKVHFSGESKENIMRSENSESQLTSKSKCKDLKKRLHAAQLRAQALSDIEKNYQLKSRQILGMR

[2] = test system: A549 lung cancer cells; test: MTT cell viability assay, A549; conditions: Homo sapiens, A549, read-out: Cell viability EC50, A549 (Figure 6A legend)
[3] = test system: A549 lung cancer cells; test: Wound-healing; conditions: 24 hr post-treatment, versus vehicle control
[4] = test system: pAkt (Ser-473) in A549 cells; test: Western-blot analysis of pAkt; conditions: 24 h treatment, compared to DMSO

| Loss of Nek2 inhibitory activity / increase of IC50 compared to V8 [1] | Selectivity towards Nek2 kinase over the other tested kinases ([1]; versus other tested kinases (Table 1)) | EC50 [2] [µM] | Compound | Mode of Nek2 inhibition [1] | Cell migration in wound-healing assay [3] | Cellular levels of pAkt (Ser-473) [4] |
| --- | --- | --- | --- | --- | --- | --- |
| > 13 fold | – | – | CS(=O)(=O)N1CCC2(CC1)NCC(=O)N2 [Compound V0-1] | – | – | – |
| significant loss of potency | – | – | CN1CCC2(CC1)NCC(=O)N2 [Compound V0-3] | – | – | – |
| – | 9- to 13 fold | 22.7 ± 0.2 | CS(=O)(=O)N1CCC2(CC1)N=C(c1ccc(Br)cc1)C(=O)N2 [Compound V8] | competitive with respect to ATP, reversible, and selective; also recorded: selective, reversible and is not time dependent; also recorded: competitive inhibitor for ATP binding | migrated slower than the vehicle control; also recorded: Dose-dependent inhibiton of cell migration | reduced levels of pAkt (Ser-473) in a dose-dependent manner |
